Test results as given in US11667674B2, “Antibacterial cyclic lipopeptides” (priority 2016, dated 2023).
In brackets after ≈: the same amount, converted by molar mass. Read-outs that look alike come from different tables or passages of the source.

Columns and labels:
MRSA ATCC33591 = assay: Neutropenic mouse thigh infection model; format: in vivo, S. aureus; design: Δ (thigh c.f.u. versus control): unit not given here; details: for Thigh colony-forming units (c.f.u): neutropenic ICR mice, thighs at 24 h, X ± SD, n = 5
Procedure: Compound 1 was tested against MRSA ATCC33591 in a neutropenic mouse thigh infection model. Both female and male ICR mice were rendered neutropenic by cyclophosphamide (three consecutive doses of 150 mg per kg delivered before infection). At day 4, bacteria were resuspended in sterile saline, 0.1 ml inoculum (MRSA ATCC33591, 5.0×10^6 c.f.u/ml) was injected into the left thighs of mice. At 2 h post-infection, mice received treatment with Compound 1 at 0.63, 1.25, 2.5, 5.0 mg per kg administered in a single dose (10 ml/kg), intravenous injection (five mice per group). At 24 h post-infection, the left thighs were aseptically removed, weighed, homogenized, serially diluted and plated on trypticase soy agar for c.f.u titres.

MRSA ATCC43300 = assay: Right-sided endocarditis rat model; format: in vivo, S. aureus; details: for Log10 (CFU/g) of vegetation / Vegetation weight: Sprague-Dawley rats, 1 time/day for 2 days, 3 animals
Procedure: Male Sprague-Dawley rats (280-300 g) were intraperitoneally anesthetized with sodium pentobarbital solution (40 mg/kg). The rat chin area was treated with 75% alcohol. The right carotid artery was exposed through an anterior incision just slight right of midline above the calvicles. Polyethylene tubing was placed over 4-4.5 cm guided wire and passed within the right carotid artery into the left ventricle until resistance was met. Cardiac pulsations of the catheter indicated proper placement of the catheter tip at the apex of the heart. 0.5 ml inoculum of the overnight cultures (ATCC43300m 3.5×10^4 c.f.u./mL) was injected through a tail vein. After 24 hours of infection, the surviving rats were randomly divided into control group and treatment group. Compound 1 and daptomycin was administered via tail vein for 2 days (1 time/day). 24 h after the last administration, the animals were anesthetized and sacrificed. Vegetations and tissue samples were excised, weighed, homogenized, serially diluted and plated on trypticase soy agar for c.f.u titres.

[1] = system: Clostridium difficile ATCC43255; assay: in vitro anti-Clostridium difficile MIC, standard broth dilution method; format: cell-based
Procedure: (§1) Anti-Clostridium difficile activity of compound 1 was tested on two strains, C. difficile BAA-1382 and […], using the standard broth dilution method as described by the Clinical Laboratory Standard Institute.

[2] = system: Clostridium difficile ATCCBAA-1382; assay: as above; format: cell-based; details: for MIC: Clostridium difficile ATCCBAA-1382; for anti-Clostridium difficile activity compared with vancomycin and daptomycin: in words, both strains of Table 3
Procedure: as §1

[3] = 0.63 mg/kg single i.v. dose 2 h post-infection
[4] = 1.25 mg/kg single i.v. dose 2 h post-infection
[5] = 2.50 mg/kg single i.v. dose 2 h post-infection
[6] = 5.00 mg/kg single i.v. dose 2 h post-infection
[7] = Clostridium difficile ATCC43255

Q: With `CCCCCCCCCC(=O)N[C@@H](Cc1c[nH]c2ccccc12)C(=O)N[C@H](CC(N)=O)C(=O)N[C@@H](CC(=O)O)C(=O)N[C@@H]1C(=O)NCC(=O)N[C@@H](CCCN)C(=O)N[C@@H](CC(=O)O)C(=O)N[C@H](C)C(=O)N[C@@H](CC(=O)O)C(=O)NCC(=O)N[C@H](CO)C(=O)N[C@@H](C(C)CC(=O)O)C(=O)N[C@@H](CC(=O)c2ccccc2NC)C(=O)O[C@@H]1C` (some centres unmarked) [Compound 1] as the molecule, how does the “Δ (thigh c.f.u. versus control)” value (MRSA ATCC33591; 0.63 mg/kg) read?
A: Its value is 0.97.

Q: And the “Δ (thigh c.f.u. versus control)” value (MRSA ATCC33591; 1.25 mg/kg)?
A: The value was 1.77.

Q: What about the “Δ (thigh c.f.u. versus control)” value (MRSA ATCC33591; 2.50 mg/kg) of the same molecule?
A: The value was 3.15.

Q: What about the “Δ (thigh c.f.u. versus control)” value (MRSA ATCC33591; 5.00 mg/kg) of the same molecule?
A: The value was 5.18.

Q: What about the “antibacterial activity compared with daptomycin” value (MRSA ATCC33591; doses of 1.25 and 2.50 mg/kg, mice with thigh infected with S. aureus) of the same molecule?
A: Its value is “significantly better antibacterial activity”.

Q: What about the “Thigh colony-forming units (c.f.u)” value (MRSA ATCC33591; [3]) of the same molecule?
A: Its value is 7.93 ± 0.85 log(CFU/thigh).

Q: And the “Thigh colony-forming units (c.f.u)” value (MRSA ATCC33591; [4])?
A: Its value is 7.13 ± 0.25 log(CFU/thigh).

Q: And the “Thigh colony-forming units (c.f.u)” value (MRSA ATCC33591; [5])?
A: The value was 5.75 ± 0.35 log(CFU/thigh).

Q: What about the “Thigh colony-forming units (c.f.u)” value (MRSA ATCC33591; [6]) of the same molecule?
A: Its value is 3.72 ± 0.35 log(CFU/thigh).

Q: And the “Δ (Log10 CFU/g of vegetation versus control)” value (MRSA ATCC43300; 20 mg/kg)?
A: The value was 1.78.

Q: What about the “Log10 (CFU/g) of vegetation” value (MRSA ATCC43300; 20 mg/kg via tail vein) of the same molecule?
A: The value was 7.53 ± 1.08 Log10 (CFU/g).

Q: And the Vegetation weight (MRSA ATCC43300; 20 mg/kg via tail vein)?
A: Its Vegetation weight is 0.012 ± 0.002 g.

Q: What about the “infection of S. aureus compared with the control groups and daptomycin” value (MRSA ATCC43300; right-sided endocarditis rats) of the same molecule?
A: The value was “significantly decrease the infection of S. aureus”.

Q: What about the MIC [1, 7] of the same molecule?
A: Its MIC is 0.5 µg/mL (≈ 0.306 µM).

Q: And the MIC [2]?
A: Its MIC is 0.5 µg/mL (≈ 0.306 µM).

Q: What about the “anti-Clostridium difficile activity compared with vancomycin and daptomycin” value [2] of the same molecule?
A: Its value is “better activities than vancomycin and daptomycin”.

Q: What about the MIC (MRSA ATCC 33591) of the same molecule?
A: Its MIC is 0.5 µg/mL (≈ 0.306 µM).

Q: Which MIC [1, 7] does the source give for `CCCCCc1ccc(/C(C)=C/C(=O)N[C@@H](Cc2c[nH]c3ccccc23)C(=O)N[C@H](CC(N)=O)C(=O)N[C@@H](CC(=O)O)C(=O)N[C@@H]2C(=O)NCC(=O)N[C@@H](CCCN)C(=O)N[C@@H](CC(=O)O)C(=O)N[C@H](C)C(=O)N[C@@H](CC(=O)O)C(=O)NCC(=O)N[C@H](CO)C(=O)N[C@@H](C(C)CC(=O)O)C(=O)N[C@@H](CC(=O)c3ccccc3NC)C(=O)O[C@@H]2C)cc1` (some centres unmarked) [Compound 7] here?
A: Its MIC is 0.25 µg/mL (≈ 0.148 µM).

Q: What about the MIC [2] of the same molecule?
A: The MIC was 0.25 µg/mL (≈ 0.148 µM).

Q: And the “anti-Clostridium difficile activity compared with vancomycin and daptomycin” value [2]?
A: The value was “better activities than vancomycin and daptomycin”.

Q: Which results are given for `CCCCCCCCCC(=O)N[C@@H](Cc1c[nH]c2ccccc12)C(=O)N[C@H](CC(N)=O)C(=O)N[C@@H](CC(=O)O)C(=O)N[C@@H]1C(=O)NCC(=O)N[C@@H](CCCN)C(=O)N[C@@H](CC(=O)O)C(=O)N[C@H](C)C(=O)N[C@@H](CC(=O)O)C(=O)NCC(=O)N[C@H](CO)C(=O)N[C@@H]([C@H](C)CC(=O)O)C(=O)N[C@@H](CC(=O)c2ccccc2N)C(=O)O[C@@H]1C` [daptomycin, reference compound]?
A: Δ (thigh c.f.u. versus control) (MRSA ATCC33591; 0.63 mg/kg): 0.88; Δ (thigh c.f.u. versus control) (MRSA ATCC33591; 1.25 mg/kg): 1.09; Δ (thigh c.f.u. versus control) (MRSA ATCC33591; 2.50 mg/kg): 1.97; Δ (thigh c.f.u. versus control) (MRSA ATCC33591; 5.00 mg/kg): 4.97; Thigh colony-forming units (c.f.u) (MRSA ATCC33591; [3]): 8.02 ± 0.48 log(CFU/thigh); Thigh colony-forming units (c.f.u) (MRSA ATCC33591; [4]): 7.81 ± 0.37 log(CFU/thigh); Thigh colony-forming units (c.f.u) (MRSA ATCC33591; [5]): 6.93 ± 0.57 log(CFU/thigh); Thigh colony-forming units (c.f.u) (MRSA ATCC33591; [6]): 3.93 ± 0.84 log(CFU/thigh); Δ (Log10 CFU/g of vegetation versus control) (MRSA ATCC43300; 40 mg/kg): 0.73; Log10 (CFU/g) of vegetation (MRSA ATCC43300; 40 mg/kg via tail vein): 8.58 ± 0.55 Log10 (CFU/g); Vegetation weight (MRSA ATCC43300; 40 mg/kg via tail vein): 0.007 ± 0.001 g; MIC [1, 7]: 1 µg/mL (≈ 0.617 µM); MIC [2]: 1 µg/mL (≈ 0.617 µM); MIC (MRSA ATCC 33591): 1 µg/mL (≈ 0.617 µM)

Q: For `CCCCCc1ccc(/C(C)=C/C(=O)N[C@@H](Cc2c[nH]c3ccccc23)C(=O)N[C@H](CC(N)=O)C(=O)N[C@@H](CC(=O)O)C(=O)N[C@@H]2C(=O)NCC(=O)N[C@@H](CCCN)C(=O)N[C@@H](CC(=O)O)C(=O)N[C@H](C)C(=O)N[C@@H](CC(=O)O)C(=O)NCC(=O)N[C@H](CO)C(=O)N[C@@H]([C@H](C)CC(=O)O)C(=O)N[C@@H](CC(=O)c3ccccc3N)C(=O)O[C@@H]2C)cc1` [surotomycin, reference compound], which MIC [1, 7] is on record?
A: Its MIC is 0.5 µg/mL (≈ 0.297 µM).

Q: And the MIC [2]?
A: Its MIC is 0.5 µg/mL (≈ 0.297 µM).

Q: For `CN[C@H](CC(C)C)C(=O)N[C@H]1C(=O)N[C@@H](CC(N)=O)C(=O)N[C@H]2C(=O)N[C@H]3C(=O)N[C@H](C(=O)N[C@H](C(=O)O)c4cc(O)cc(O)c4-c4cc3ccc4O)[C@H](O)c3ccc(c(Cl)c3)Oc3cc2cc(c3O[C@@H]2O[C@H](CO)[C@@H](O)[C@H](O)[C@H]2O[C@H]2C[C@](C)(N)[C@H](O)[C@H](C)O2)Oc2ccc(cc2Cl)[C@H]1O` [vancomycin, reference compound], which MIC ([1]; Clostridioides difficile, ATCC43255) is on record?
A: Its MIC is 1 µg/mL (≈ 0.69 µM).

Q: What about the MIC ([2]; Clostridioides difficile, ATCCBAA1382, read-out: MIC) of the same molecule?
A: The MIC was 1 µg/mL (≈ 0.69 µM).
